Assay results published in ChEMBL document CHEMBL3414497, “Overcoming mutagenicity and ion channel activity: optimization of selective spleen tyrosine kinase inhibitors” (J Med Chem, 2015).

Assays:
[1] = Plasma concentration in collagen-induced Lewis rat arthritic model at 1 mg/kg, po qd measured at 2 hrs; type: ADME, organism-based; parameters: dose 1 mg/kg, route oral
[2] = Plasma concentration in collagen-induced Lewis rat arthritic model at 3 mg/kg, po qd measured at 24 hrs; type: ADME, organism-based; parameters: dose 3 mg/kg, route oral
Rattus norvegicus = species on record: Rattus norvegicus; conditions: in vivo, po
[3] = Plasma concentration in collagen-induced Lewis rat arthritic model at 10 mg/kg, po qd measured at 2 hrs; type: ADME, organism-based; parameters: dose 10 mg/kg, route oral
[4] = Plasma concentration in collagen-induced Lewis rat arthritic model at 1 mg/kg, po qd measured at 8 hrs; type: ADME, organism-based; parameters: dose 1 mg/kg, route oral
[5] = Cmax in collagen-induced Lewis rat arthritic model at 3 mg/kg, po qd; type: ADME, organism-based; parameters: dose 3 mg/kg, route oral; conditions: in vivo
[6] = Plasma concentration in collagen-induced Lewis rat arthritic model at 3 mg/kg, po qd measured at 8 hrs; type: ADME, organism-based; parameters: dose 3 mg/kg, route oral
in vivo [7] = conditions: rat, plasma, po
[8] = Plasma concentration in collagen-induced Lewis rat arthritic model at 1 mg/kg, po qd measured at 4 hrs; type: ADME, organism-based; parameters: dose 1 mg/kg, route oral
[9] = Plasma concentration in collagen-induced Lewis rat arthritic model at 10 mg/kg, po qd measured at 24 hrs; type: ADME, organism-based; parameters: dose 10 mg/kg, route oral
in vivo [10] = conditions: rat, po
Plasma [11] = test: Plasma concentration in collagen-induced Lewis rat arthritic model at 10 mg/kg, po qd measured immediately post compound dosing; type: ADME, organism-based; parameters: dose 10 mg/kg, route oral; conditions: in vivo
in vivo [12] = conditions: rat, po; remark: listed apart in the source
physchem [13] = test: physchem
Plasma [14] = test: Plasma concentration in collagen-induced Lewis rat arthritic model at 1 mg/kg, po qd measured immediately post compound dosing; type: ADME, organism-based; parameters: dose 1 mg/kg, route oral; conditions: in vivo
[15] = Plasma concentration in collagen-induced Lewis rat arthritic model at 10 mg/kg, po qd measured at 8 hrs; type: ADME, organism-based; parameters: dose 10 mg/kg, route oral
[16] = Plasma concentration in collagen-induced Lewis rat arthritic model at 1 mg/kg, po qd measured at 24 hrs; type: ADME, organism-based; parameters: dose 1 mg/kg, route oral
[17] = Plasma concentration in collagen-induced Lewis rat arthritic model at 10 mg/kg, po qd measured at 4 hrs; type: ADME, organism-based; parameters: dose 10 mg/kg, route oral
Plasma [18] = test: Plasma concentration in collagen-induced Lewis rat arthritic model at 3 mg/kg, po qd measured immediately post compound dosing; type: ADME, organism-based; parameters: dose 3 mg/kg, route oral; conditions: in vivo
[19] = Plasma concentration in collagen-induced Lewis rat arthritic model at 3 mg/kg, po qd measured at 2 hrs; type: ADME, organism-based; parameters: dose 3 mg/kg, route oral
[20] = Plasma concentration in collagen-induced Lewis rat arthritic model at 3 mg/kg, po qd measured at 4 hrs; type: ADME, organism-based; parameters: dose 3 mg/kg, route oral
physchem [21] = conditions: octanol/buffer

## Cc1cc(C)nc(Nc2cc(N[C@@H]3CCCC[C@@H]3N)cnc2C(N)=O)c1
[1]
  concentration at 2 h: 40 nM
[2]
  concentration at 24 h: 7 nM
Rattus norvegicus
  CL free: 710 mL/min/kg
[3]
  concentration at 2 h: 200 nM
[4]
  concentration at 8 h: 90 nM
[5]
  Cmax: 200 nM
[6]
  concentration at 8 h: 100 nM
In vivo [7]
  CL/F: 33 mL/min/kg
[8]
  concentration at 4 h: 100 nM
[9]
  concentration at 24 h: 10 nM
In vivo [10]
  bioavailability: 19%
Plasma [11]
  concentration: 10 nM
In vivo [12]
  half-life: 162 min
Physchem [13]
  pKa at 100 µM: 9
Plasma [14]
  concentration: 5 nM
[15]
  concentration at 8 h: 500 nM
[16]
  concentration at 24 h: 5 nM
[17]
  concentration at 4 h: 500 nM
Plasma [18]
  concentration: 7 nM
[19]
  concentration at 2 h: 60 nM
[20]
  concentration at 4 h: 200 nM
Physchem [21]
  logD at 500 µM: 2.1

## NC(=O)c1ncc(N[C@@H]2CCCC[C@@H]2N)nc1-c1cc2ccccc2[nH]1
Rattus norvegicus
  CL free: 255 mL/min/kg
In vivo [7]
  CL/F: 44 mL/min/kg
In vivo [12]
  half-life: 168 min

## COc1cccc2[nH]c(-c3nc(N[C@@H]4CCOC[C@@H]4N)cnc3C(N)=O)cc12
Rattus norvegicus
  CL free: 100 mL/min/kg
In vivo [7]
  CL/F: 25 mL/min/kg
In vivo [10]
  bioavailability: 29%
In vivo [12]
  half-life: 210 min
